{
  "source": "patent US20150004134A1",
  "about": "“TREATMENT OF CANCER WITH HETEROCYCLIC INHIBITORS OF GLUTAMINASE” (Calithera Biosciences, Inc., priority 2012, published 2015)",
  "data": [
    {"tested_on": "P493-6 (myc \"on\") cells", "experiment": "Cell Proliferation Assay", "type": "cell-based", "conditions": "P493-6, 72 h, read-out: Cell prolif P493 72 h IC50, P493-6 cells, 72 h", "in_short": "(§1)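 Read-out: either Cell Titer Glo or Guava Viacount flow analysis after 72 h compound treatment of myc-on P493-6 cells (10,000/well, RPMI with 10% FBS) at 37 °C. DMSO held at 0.5% final.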", "units": {"IC50": "nM"}, "values": [
      {"compound": "COCCOc1cccc(CC(=O)Nc2nnc(CCCCc3ccc(NC(=O)Cc4ccccc4)nn3)s2)c1", "note": "[Compound 428]", "IC50": 19},
      {"compound": "O=C(Nc1ccc(CCCCc2nnc(NC(=O)C(O)c3cccc(Cl)c3)s2)nn1)C(O)c1cccc(Cl)c1", "note": "(stereo not drawn) [Compound 446]", "IC50": 150},
      {"compound": "Cc1nnc(Cc2cccc(CC(=O)Nc3ccc(CCCCc4nnc(NC(=O)Cc5ccccc5)s4)nn3)c2)o1", "note": "[Compound 652, 2-(3-((5-methyl-1,3,4-oxadiazol-2-yl)methyl)phenyl)-N-(6-(4-(5-(2-phenylacetamido)-1,3,4-thiadiazol-2-yl)butyl)pyridazin-3-yl)acetamide]", "IC50": 39},
      {"compound": "CCCC(=O)OCN(C(=O)C(CO)c1cccc(CNC(=O)OC(C)(C)C)c1)c1nnc(CCCCc2ccc(NC(=O)Cc3ccccc3)nn2)s1", "note": "(stereo not drawn) [Compound 567]", "IC50": 21},
      {"compound": "O=C(Cc1ccccc1)Nc1ccc(CCCCc2nnc(NC(=O)Cc3cccc(CN4CCCC4=O)c3)s2)nn1", "note": "[Compound 479]", "IC50": 30},
      {"compound": "COC(C(=O)Nc1nnc(CCCCc2ccc(NC(=O)Cc3cccc(CNC(=O)CC(O)C(F)(F)F)c3)nn2)s1)c1ccccc1", "note": "(stereo not drawn) [Compound 604]", "IC50": 42},
      {"compound": "O=C(Cc1cccnc1)Nc1nnc(CCSCCc2nnc(NC(=O)Cc3cccnc3)s2)s1", "note": "[Compound 638]", "IC50": 5700},
      {"compound": "O=C(Cc1ccccc1)Nc1nnc(CCCCc2ccc(NC(=O)NCc3ccccc3)nn2)s1", "note": "[Compound 405]", "IC50": 670},
      {"compound": "CC(C)(C)OC(=O)NCc1cccc(CC(=O)Nc2nnc(CCCCc3ccc(NC(=O)C4(C)COC(C)(C)OC4)nn3)s2)c1", "note": "[Compound 529]", "IC50": 160},
      {"compound": "CC(N)c1cccc(CC(=O)Nc2ccc(CCCCc3nnc(NC(=O)Cc4ccccc4)s3)nn2)c1", "note": "(stereo not drawn) [Compound 560]", "IC50": 37},
      {"compound": "CC(C(=O)Nc1nnc(CCCCc2ccc(NC(=O)Cc3ccccc3)nn2)s1)c1ccc(F)c(CNC(=O)OC(C)(C)C)c1", "note": "(stereo not drawn) [Compound 568]", "IC50": 28},
      {"compound": "CC(=O)Nc1ccc(CC(=O)Nc2nnc(CCCCc3ccc(NC(=O)Cc4ccccc4)nn3)s2)cc1", "note": "[Compound 426]", "IC50": 33},
      {"compound": "CCNC(=O)Nc1ccc(CCCCc2nnc(NC(=O)Cc3cccc(CNC(=O)OC(C)(C)C)c3)s2)nn1", "note": "[Compound 420]", "IC50": 70}
    ]},
    {"tested_on": "P493-6 (myc \"on\") cells", "experiment": "Cell Proliferation Assay", "type": "cell-based", "conditions": "P493-6, 72 h, read-out: Cell prolif P493 72 h IC50, P493 cells, 72 h", "in_short": "as §1", "units": {"IC50": "nM"}, "values": [
      {"compound": "CC1(C)OCC(C(=O)Nc2nnc(CCCCc3nnc(NC(=O)Cc4ccccc4)s3)s2)(c2ccccc2)O1", "note": "(stereo not drawn) [Compound 279]", "IC50": 7000},
      {"compound": "CO[C@H](C(=O)Nc1nnc(CCCCc2nnc(NC(=O)[C@@H](OC)c3ccccc3)s2)s1)c1ccccc1", "note": "[Compound 148]", "IC50": 390},
      {"compound": "NCc1cccc(CC(=O)Nc2nnc(CCCCc3ccc(NC(=O)Cc4ccccc4)nn3)s2)c1", "note": "[Compound 341]", "IC50": 39},
      {"compound": "O=C(Nc1nnc(CCCCc2nnc(NC(=O)[C@@H](O)c3ccccc3)s2)s1)[C@@H](O)c1ccccc1", "note": "[Compound 92]", "IC50": 470},
      {"compound": "O=C(Nc1nnc(CCCCc2nnc(NC(=O)C(O)c3ccccc3Br)s2)s1)C(O)c1ccccc1Br", "note": "(stereo not drawn) [Compound 287]", "IC50": 1300},
      {"compound": "O=C(Cc1ccccc1Br)Nc1nnc(CCSCCc2nnc(NC(=O)Cc3ccccc3Br)s2)s1", "note": "[Compound 283]", "IC50": 740},
      {"compound": "CC(C)(C)OC(=O)N[C@@H](C(=O)Nc1nnc(CCSCCc2nnc(NC(=O)[C@H](NC(=O)OC(C)(C)C)c3ccccc3)s2)s1)c1ccccc1", "note": "[Compound 46]", "IC50": 16000},
      {"compound": "O=C(Cc1ccccc1)Nc1nnc(CCSCCc2nnc(NC(=O)Cc3ccccc3)s2)s1", "note": "[Compound 1, N,N′-(5,5′-(thiobis(ethane-2,1-diyl))bis(1,3,4-thiadiazole-5,2-diyl))bis(2-phenylacetamide)]", "IC50": 470},
      {"compound": "CC(C)(C)OC(=O)Nc1cccc(CC(=O)Nc2nnc(CCCCc3nnc(NC(=O)Cc4cccc(NC(=O)OC(C)(C)C)c4)s3)s2)c1", "note": "[Compound 327]", "IC50": 150},
      {"compound": "O=C(Cc1ccccc1F)Nc1nnc(CCCCc2nnc(NC(=O)Cc3ccccc3F)s2)s1", "note": "[Compound 292]", "IC50": 12},
      {"compound": "O=C(Nc1nnc(CCSCCc2nnc(NC(=O)C(c3ccccc3)N3CCNCC3)s2)s1)C(c1ccccc1)N1CCNCC1", "note": "(stereo not drawn) [Compound 79]", "IC50": 2000},
      {"compound": "CC(C)(C)OC(=O)N1CCCC(CC(=O)Nc2nnc(CCCCc3nnc(NC(=O)CC4CCCN(C(=O)OC(C)(C)C)C4)s3)s2)C1", "note": "(stereo not drawn) [Compound 115]", "IC50": 1100},
      {"compound": "O=C(Nc1nnc(CCCc2nnc(NC(=O)C(CO)c3ccccc3)s2)s1)C(CO)c1ccccc1", "note": "(stereo not drawn) [Compound 176]", "IC50": 1500},
      {"compound": "C[C@H](O)C(=O)Nc1nnc(CCCCc2nnc(NC(=O)Cc3ccccc3)s2)s1", "note": "[Compound 321]", "IC50": 2600},
      {"compound": "NS(=O)(=O)c1ccc(CC(=O)Nc2nnc(CCCCc3nnc(NC(=O)Cc4ccc(S(N)(=O)=O)cc4)s3)s2)cc1", "note": "[Compound 198]", "IC50": "> 50000"},
      {"compound": "O=C(Cc1ccccc1)Nc1nnc(CCCCc2nnc(NC(=O)C(O)c3cccc(Cl)c3)s2)s1", "note": "(stereo not drawn) [Compound 527]", "IC50": 98},
      {"compound": "O=C(Nc1nnc(CCCCc2nnc(NC(=O)C3CC4CCC3C4)s2)s1)C1CC2CCC1C2", "note": "(stereo not drawn) [Compound 55]", "IC50": 3900},
      {"compound": "CC1(C(=O)Nc2nnc(CCSCCc3nnc(NC(=O)C4(C)CCCO4)s3)s2)CCCO1", "note": "(stereo not drawn) [Compound 119]", "IC50": 13000},
      {"compound": "O=C(CC(C(=O)O)c1ccccc1)Nc1nnc(CCCCc2nnc(NC(=O)CC(C(=O)O)c3ccccc3)s2)s1", "note": "(stereo not drawn) [Compound 177]", "IC50": "> 50000"},
      {"compound": "O=C(Cc1cccc(-n2cccn2)c1)Nc1nnc(CCCCc2nnc(NC(=O)Cc3cccc(-n4cccn4)c3)s2)s1", "note": "[Compound 285]", "IC50": 140},
      {"compound": "Nc1ccc(CC(=O)Nc2nnc(CCCCc3nnc(NC(=O)Cc4ccc(N)cc4)s3)s2)cc1", "note": "[Compound 196]", "IC50": 610},
      {"compound": "C[C@H](NC(=O)OC(C)(C)C)C(=O)Nc1nnc(CCSCCc2nnc(NC(=O)[C@H](C)NC(=O)OC(C)(C)C)s2)s1", "note": "[Compound 49]", "IC50": 17000},
      {"compound": "O=C(Cc1ccc2ncccc2c1)Nc1nnc(CCCCc2nnc(NC(=O)Cc3ccc4ncccc4c3)s2)s1", "note": "[Compound 269]", "IC50": 520},
      {"compound": "CC(C(=O)Nc1nnc(CCSCCc2nnc(N)s2)s1)c1ccccc1", "note": "(stereo not drawn) [Compound 20]", "IC50": 2600},
      {"compound": "O=C(Cc1ccccc1)Nc1nnc(CCSCCc2nnc(NC(=O)Cc3cccnc3)s2)s1", "note": "[Compound 347]", "IC50": 710},
      {"compound": "O=C(Cc1ccccc1)Nc1ccc(CCCCc2ccc(NC(=O)Cc3ccccc3)nn2)nn1", "note": "[Compound 1038]", "IC50": 1500},
      {"compound": "COc1ccccc1CC(=O)Nc1nnc(CCSCc2nnc(NC(=O)Cc3ccccc3OC)s2)s1", "note": "[Compound 249]", "IC50": 160},
      {"compound": "COCC(C(=O)Nc1nnc(CCSCCc2nnc(NC(=O)C(COC)c3ccccc3)s2)s1)c1ccccc1", "note": "(stereo not drawn) [Compound 204]", "IC50": 2400},
      {"compound": "O=C(Nc1nnc(CCCCc2nnc(NC(=O)[C@@H](O)[C@H](O)c3ccccc3)s2)s1)[C@@H](O)[C@H](O)c1ccccc1", "note": "[Compound 226]", "IC50": "> 50000"},
      {"compound": "CC(C)(C)OC(=O)Nc1ccc(CC(=O)Nc2nnc(CCCCc3nnc(NC(=O)Cc4ccc(NC(=O)OC(C)(C)C)cc4)s3)s2)cc1", "note": "[Compound 192]", "IC50": 30},
      {"compound": "O=C(CC1CC1)Nc1nnc(CCCCc2nnc(NC(=O)CC3CC3)s2)s1", "note": "[Compound 85]", "IC50": 1800},
      {"compound": "O=C(Cc1ccccc1)Nc1nnc(CCSCCc2nnc(N(COC(=O)OCCCN3CCOCC3)C(=O)Cc3ccccc3)s2)s1", "note": "[Compound 27]", "IC50": 470},
      {"compound": "O=C(Nc1nnc(CCCCc2nnc(NC(=O)C3CCCC3)s2)s1)C1CCCC1", "note": "[Compound 53]", "IC50": 34000},
      {"compound": "COc1ccccc1C(C)C(=O)Nc1nnc(CCSCCc2nnc(NC(=O)C(C)c3ccccc3OC)s2)s1", "note": "(stereo not drawn) [Compound 263]", "IC50": 3900},
      {"compound": "COc1ccc2c(c1)CC(C(=O)Nc1nnc(CCSCCc3nnc(NC(=O)C4Cc5cc(OC)ccc5O4)s3)s1)O2", "note": "(stereo not drawn) [Compound 117]", "IC50": 6200}
    ]}
  ]
}
